Results on 23 compounds are retold here after US20250059185A1 (Hoffmann-La Roche Inc., priority 2021, published 2025).

Chain of MAGL (Q99685 whole entry, species assumed): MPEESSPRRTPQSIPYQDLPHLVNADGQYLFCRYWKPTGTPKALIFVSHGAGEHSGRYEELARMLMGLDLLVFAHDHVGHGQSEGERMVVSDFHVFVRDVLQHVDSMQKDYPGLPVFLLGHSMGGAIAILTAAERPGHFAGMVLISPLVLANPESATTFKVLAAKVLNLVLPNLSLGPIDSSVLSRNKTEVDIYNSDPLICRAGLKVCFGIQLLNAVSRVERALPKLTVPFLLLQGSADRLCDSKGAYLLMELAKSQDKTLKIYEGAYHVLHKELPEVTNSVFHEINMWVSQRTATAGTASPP

The target of this assay is MAGL (Homo sapiens (Human), UniProt Q99685). Kind of assay: 2-AG assay (MAGL inhibitory activity, hydrolysis of 2-arachidonoylglycerol followed by mass spectrometry). It counts as biochemical. As to conditions: 50 pM MAGL protein, 15 min pre-incubation, 30 min incubation at RT. The source says:
Compounds of formula (II) were profiled for MAGL inhibitory activity by determining the enzymatic activity by following the hydrolysis of the natural substrate 2-arachidonoylglycerol (2-AG) resulting in arachidonic acid, which can be followed by mass spectrometry. This assay is hereinafter abbreviated “2-AG assay”.
Compounds of formula (II) were profiled for MAGL inhibitory activity by determining the enzymatic activity by following the hydrolysis of the natural substrate 2-arachidonoylglycerol (2-AG) resulting in arachidonic acid, which can be followed by mass spectrometry. This assay is hereinafter abbreviated “2-AG assay”. The 2-AG assay was carried out in 384 well polypropylene assay plates. Compound dilutions were made in 100% DMSO in a polypropylene plate in 3-fold dilution steps to give a final concentration range in the assay from 12.5 μM to 0.8 pM. Compound dilutions were added to MAGL protein in assay buffer (50 mM TRIS, 1 mM EDTA, 0.01% (v/v) Tween-20, 2.5% (v/v) DMSO). After shaking, the plate was incubated for 15 min at RT. To start the reaction, 2-arachidonoylglycerol in assay buffer was added. The final concentrations in the assay was 50 pM for MAGL protein and […] 2-arachidonoylglyerol. After shaking and 30 min incubation at RT, the reaction was quenched by the addition of two assay volumes of acetonitrile containing 4 μM of d8-arachidonic acid. The amount of arachidonic acid formed was traced by an online SPE system (Agilent Rapidfire) coupled to a triple quadrupole mass spectrometer. A C18 SPE cartridge (Agilent G9205A) was used in an acetonitrile/water liquid setup. The mass spectrometer was operated in negative electrospray mode following the mass transitions 303.1→259.1 for arachidonic acid and 311.1→267.0 for d8-arachidonic acid. The activity of the compounds was calculated based on the ratio of intensities [arachidonic acid/d8-arachidonic acid].
In the case of `C[C@H]1c2nn(C)c(-c3cc(F)cc(F)c3)c2CCN1C(=O)c1ncn(-c2cc(Cl)cnc2O)n1` [Example 35, [1-(5-Chloro-2-hydroxy-3-pyridyl)-1,2,4-triazol-3-yl]-[(7S)-3-(3,5-difluorophenyl)-2,7-dimethyl-5,7-dihydro-4H-pyrazolo[3,4-c]pyridin-6-yl]methanone], the IC50 (usually the concentration needed to halve the response being measured) stood at 104 nM.

Consider `C[C@H]1c2nn(C)c(-c3cc(F)cc(F)c3)c2CCN1C(=O)c1cc(F)cc(-c2c[nH]c(C#N)c2)c1Cl` [Example 36, 4-[2-Chloro-3-[(7S)-3-(3,5-difluorophenyl)-2,7-dimethyl-5,7-dihydro-4H-pyrazolo[3,4-c]pyridine-6-carbonyl]-5-fluoro-phenyl]-1H-pyrrole-2-carbonitrile], for which the IC50 came out at 17 nM.

As to `CC1c2nn(C)c(-c3cc(F)cc(F)c3)c2CCN1C(=O)c1ccnc(OCC2CNC(=O)O2)c1Cl` (centres unmarked) [Example 41, 5-[[3-Chloro-4-[3-(3,5-difluorophenyl)-2,7-dimethyl-5,7-dihydro-4H-pyrazolo[3,4-c]pyridine-6-carbonyl]-2-pyridyl]oxymethyl]oxazolidin-2-one], the 50% inhibitory concentration (IC50) stood at 53 nM. Against the preceding compound, the IC50 is about 3.1-fold higher.

As to `C[C@H]1c2nn(C)c(-c3cc(F)cc(F)c3)c2CCN1C(=O)c1ccnc(OCC2CNC(=O)O2)c1Cl` (stereo partly drawn) [Example 42, 5-[[3-Chloro-4-[(7S)-3-(3,5-difluorophenyl)-2,7-dimethyl-5,7-dihydro-4H-pyrazolo[3,4-c]pyridine-6-carbonyl]-2-pyridyl]oxymethyl]oxazolidin-2-one], the midpoint of inhibition, the IC50, lay at 26 nM.

`C[C@@H]1c2nn(C)c(-c3cc(F)cc(F)c3)c2CCN1C(=O)c1ccnc(OCC2CNC(=O)O2)c1Cl` (stereo partly drawn) [Example 43, 5-[[3-Chloro-4-[(7R)-3-(3,5-difluorophenyl)-2,7-dimethyl-5,7-dihydro-4H-pyrazolo[3,4-c]pyridine-6-carbonyl]-2-pyridyl]oxymethyl]oxazolidin-2-one]: the IC50 was found to be 1340 nM.

`CC1c2nn(C)c(-c3cc(F)cc(F)c3)c2CCN1C(=O)c1ccc(CCC2CNC(=O)C2)cc1Cl` (centres unmarked) [Example 44, 4-[2-[3-Chloro-4-[3-(3,5-difluorophenyl)-2,7-dimethyl-5,7-dihydro-4H-pyrazolo[3,4-c]pyridine-6-carbonyl]phenyl]ethyl]pyrrolidin-2-one] gave an IC50 of 261 nM. Compared with the last compound, the IC50 is about 5.1-fold lower.

For the compound `C[C@H]1c2nn(C)c(-c3cc(F)cc(F)c3)c2CCN1C(=O)c1ccc(CCC2CNC(=O)C2)cc1Cl` (stereo partly drawn) [Example 45, 4-[2-[3-Chloro-4-[(7S)-3-(3,5-difluorophenyl)-2,7-dimethyl-5,7-dihydro-4H-pyrazolo[3,4-c]pyridine-6-carbonyl]phenyl]ethyl]pyrrolidin-2-one], 99 nM corresponded to half-maximal inhibition (IC50). This IC50 is about 2.6-fold lower than that of the compound before.

In turn, `C[C@@H]1c2nn(C)c(-c3cc(F)cc(F)c3)c2CCN1C(=O)c1ccc(CCC2CNC(=O)C2)cc1Cl` (stereo partly drawn) [Example 48, 4-[2-[3-Chloro-4-[(7R)-3-(3,5-difluorophenyl)-2,7-dimethyl-5,7-dihydro-4H-pyrazolo[3,4-c]pyridine-6-carbonyl]phenyl]ethyl]pyrrolidin-2-one] displayed an IC50 of 1680 nM.

Take `C[C@H]1c2nn(C)c(-c3cc(F)cc(F)c3)c2CCN1C(=O)c1cc(F)cc(-c2c[nH]c(C#N)c2)c1` [Example 53, 4-[3-[(7S)-3-(3,5-Difluorophenyl)-2,7-dimethyl-5,7-dihydro-4H-pyrazolo[3,4-c]pyridine-6-carbonyl]-5-fluorophenyl]-1H-pyrrole-2-carbonitrile]: it took 3 nM to reach half-maximal inhibition (IC50).

The compound `CC1c2nn(C)c(-c3cc(Cl)cc(C4(NS(C)(=O)=O)CC4)c3)c2CCN1C(=O)c1cc(F)cc(-c2ccc(=O)[nH]c2)c1Cl` (centres unmarked) [Example 55, N-[1-[3-Chloro-5-[6-[2-chloro-5-fluoro-3-(6-oxo-1H-pyridin-3-yl)benzoyl]-2,7-dimethyl-5,7-dihydro-4H-pyrazolo[3,4-c]pyridin-3-yl]phenyl]cyclopropyl]methanesulfonamide] yielded an IC50 of 7 nM.

Take `C=S(N)(=O)c1cc(Cl)cc(-c2c3c(nn2C)C(C)N(C(=O)c2cc(F)cc(-c4ccc(=O)[nH]c4)c2Cl)CC3)c1` (centres unmarked) [Example 56]: the half-maximal inhibitory concentration (IC50) was 12 nM. Compared with the last compound, the IC50 is about 1.7-fold higher.

`CC1c2nn(C)c(-c3cc(Cl)cc(C4(NS(C)(=O)=O)CC4)c3)c2CCN1C(=O)c1cc(F)cc(-c2cc[nH]c(=O)c2)c1Cl` (centres unmarked) [Example 57, N-[1-[3-Chloro-5-[6-[2-chloro-5-fluoro-3-(2-oxo-1H-pyridin-4-yl)benzoyl]-2,7-dimethyl-5,7-dihydro-4H-pyrazolo[3,4-c]pyridin-3-yl]phenyl]cyclopropyl]methanesulfonamide] gave an IC50 of 115 nM.

Compound `CC1c2nn(C)c(-c3cncc(C(F)(F)F)n3)c2CCN1C(=O)c1cc(F)cc(N2CC(S(N)(=O)=O)C2)c1Cl` (centres unmarked) [Example 58, 1-[2-Chloro-3-[2,7-dimethyl-3-[6-(trifluoromethyl)pyrazin-2-yl]-5,7-dihydro-4H-pyrazolo[3,4-c]pyridine-6-carbonyl]-5-fluoro-phenyl]azetidine-3-sulfonamide] came in with an IC50 of 304 nM.

Consider `CC1c2nn(C)c(-c3cc(Cl)cc(S(N)(=O)=O)c3)c2CCN1C(=O)c1ncn(-c2ccc[nH]c2=O)n1` (centres unmarked) [Example 59, 3-Chloro-5-[2,7-dimethyl-6-[1-(2-oxo-1H-pyridin-3-yl)-1,2,4-triazole-3-carbonyl]-5,7-dihydro-4H-pyrazolo[3,4-c]pyridin-3-yl]benzenesulfonamide], for which the IC50 worked out at 1070 nM.

For the compound `CC1c2nn(C)c(-c3cc(Cl)cc(C4(S(C)(=O)=O)CC4)c3)c2CCN1C(=O)c1cc(F)cc(-c2ccc(=O)[nH]c2)c1Cl` (centres unmarked) [Example 60, 5-[2-Chloro-3-[3-[3-chloro-5-(1-methylsulfonylcyclopropyl)phenyl]-2,7-dimethyl-5,7-dihydro-4H-pyrazolo[3,4-c]pyridine-6-carbonyl]-5-fluoro-phenyl]-1H-pyridin-2-one], inhibition was half-maximal at 138 nM (IC50).

Compound `CC1c2nn(C)c(-c3cc(Cl)cc(S(N)(=O)=O)c3)c2CCN1C(=O)c1cc(F)cc(-c2nc[nH]n2)c1Cl` (centres unmarked) [Example 61, 3-Chloro-5-[6-[2-chloro-5-fluoro-3-(1H-1,2,4-triazol-3-yl)benzoyl]-2,7-dimethyl-5,7-dihydro-4H-pyrazolo[3,4-c]pyridin-3-yl]benzenesulfonamide] displayed an IC50 of 77 nM.

In turn, `C[C@H]1c2nn(C)c(-c3cc(Cl)cc(S(N)(=O)=O)c3)c2CCN1C(=O)c1ncn(-c2ccc[nH]c2=O)n1` [Example 62, 3-Chloro-5-[(7S)-2,7-dimethyl-6-[1-(2-oxo-1H-pyridin-3 yl)-1,2,4-triazole-3-carbonyl]-5,7-dihydro-4H-pyrazolo[3,4-c]pyridin-3-yl]benzenesulfonamide] registered a concentration for half-maximal inhibition (IC50) of 326 nM.

With `C[C@@H]1c2nn(C)c(-c3cc(Cl)cc(S(N)(=O)=O)c3)c2CCN1C(=O)c1ncn(-c2ccc[nH]c2=O)n1` [Example 63, 3-Chloro-5-[(7R)-2,7-dimethyl-6-[1-(2-oxo-1H-pyridin-3-yl)-1,2,4-triazole-3-carbonyl]-5,7-dihydro-4H-pyrazolo[3,4-c]pyridin-3-yl]benzenesulfonamide], the midpoint of inhibition, the IC50, lay at 552 nM. This IC50 lies about 1.7-fold higher than the previous one.

Turning to `C[C@H]1c2nn(C)c(-c3cncc(C(F)(F)F)n3)c2CCN1C(=O)c1cc(F)cc(-c2c[nH]c(C#N)c2)c1Cl` [Example 64, 4-[2-chloro-3-[(7S)-2,7-dimethyl-3-[6-(trifluoromethyl)pyrazin-2-yl]-5,7-dihydro-4H-pyrazolo[3,4-c]pyridine-6-carbonyl]-5-fluoro-phenyl]-1H-pyrrole-2-carbonitrile], the IC50 worked out at 13 nM.

In turn, `C[C@H]1c2nn(C)c(-c3cncc(C(F)(F)F)n3)c2CCN1C(=O)c1cc(F)cc(N2CC3(C2)CS(=O)(=O)C3)c1Cl` [Example 65, [2-chloro-3-(2,2-dioxo-2λ^6-thia-6-azaspiro[3.3]heptan-6-yl)-5-fluoro-phenyl]-[(7S)-2,7-dimethyl-3-[6-(trifluoromethyl)pyrazin-2-yl]-5,7-dihydro-4H-pyrazolo[3,4-c]pyridin-6-yl]methanone] came in with an IC50 of 2830 nM.

Consider `C[C@@H]1c2nn(C)c(-c3cncc(C(F)(F)F)n3)c2CCN1C(=O)c1cc(F)cc(N2CC3(C2)CS(=O)(=O)C3)c1Cl` [Example 66, [2-chloro-3-(2,2-dioxo-2λ^6-thia-6-azaspiro[3.3]heptan-6-yl)-5-fluoro-phenyl]-[(7R)-2,7-dimethyl-3-[6-(trifluoromethyl)pyrazin-2-yl]-5,7-dihydro-4H-pyrazolo[3,4-c]pyridin-6-yl]methanone], for which the IC50 is 3240 nM.

Consider `C[C@H]1c2nn(C)c(-c3cncc(C(F)(F)F)n3)c2CCN1C(=O)c1ncn(-c2ccc[nH]c2=O)n1` [Example 67, 3-[3-[(7S)-2,7-dimethyl-3-[6-(trifluoromethyl)pyrazin-2-yl]-5,7-dihydro-4H-pyrazolo[3,4-c]pyridine-6-carbonyl]-1,2,4-triazol-1-yl]-1H-pyridin-2-one], for which the midpoint of inhibition, the IC50, lay at 4220 nM.

For the compound `C[C@H]1c2nn(C)c(-c3cncc(C(F)(F)F)n3)c2CCN1C(=O)c1cc(F)cc(-c2ccc(=O)[nH]c2)c1Cl` [Example 68, 5-[2-chloro-3-[(7S)-2,7-dimethyl-3-[6-(trifluoromethyl)pyrazin-2-yl]-5,7-dihydro-4H-pyrazolo[3,4-c]pyridine-6-carbonyl]-5-fluoro-phenyl]-1H-pyridin-2-one], the IC50 was determined as 4290 nM.
